The results in this text go back to patent publication US20260022143A1, “Cyclic Peptide Inhibitors of IL-23” (JANSSEN PHARMACEUTICA NV, priority 2022, published 2026).

Starred links: 1 amine or outer side, 2 acyl side, 3 side chain; linkers in the order of their positions; H or OH if unused. Positions of bridges follow the written chain, without caps; N, C: chain ends. Non-standard residues stand in square brackets, D forms with d. Residues, ends and D or L forms follow the SMILES beside them. Groups on a side chain read outwards from the residue. *: point of attachment. X48 = CCCCCCCCCCCC(=O)N[C@@H](CCC(=O)*)C(=O)N[C@H](CC(=O)O)C[N+](C)(C)C; Me3N+CH2CH2(OCH2CH2)4CO = C[N+](C)(C)CCOCCOCCOCCOCCC(=O)*; Me3N+(CH2)2O(CH2)2O(CH2)2CO = C[N+](C)(C)CCOCCOCCC(=O)*; dTrp(7-Me) = Cc1cccc2c(C[C@@H](N)C(=O)O)c[nH]c12; Trp(7-Me) = Cc1cccc2c(C[C@H](N)C(=O)O)c[nH]c12; Abu(4-yl) = O=C([C@H](CC[*:3])N[*:1])[*:2]; Dab(NMeAc) = CC(=O)N(C)CC[C@H](N)C(=O)O; X1 = CN(CC[C@H](N[*:1])C(=O)[*:2])[*:3]; X60 = CCCCCCCC[N+](C)(C)CCc1cn(CC*)nn1; γGlu = O=C(O)[C@H](CCC(=O)[*:2])N[*:1]; 2Nal = N[C@@H](Cc1ccc2ccccc2c1)C(=O)O; AEF = NCCOc1ccc(C[C@H](N)C(=O)O)cc1; 3Pal = N[C@@H](Cc1cccnc1)C(=O)O; Lys(Me) = CNCCCC[C@H](N)C(=O)O; X5 = C[N+](C)(C)CCOCCOCC(=O)*; NMeK = CN[C@@H](CCCCN)C(=O)O; Pen = CC(C)(S)[C@H](N)C(=O)O; Lauroyl = CCCCCCCCCCCC(=O)*; αMeC = C[C@](N)(CS)C(=O)O; Thp = NC1(C(=O)O)CCOCC1; X3 = C[N+](C)(C)CCCCC*; AEEA = NCCOCCOCC(=O)O; X25 = COCCOCCN(C)*; Sar = CNCC(=O)O

In one series the target is T1, IL-23R (Homo sapiens, UniProt Q5VWK5).
T1 construct: host or cells: HEK293
T1 sequence (Q5VWK5 24-629): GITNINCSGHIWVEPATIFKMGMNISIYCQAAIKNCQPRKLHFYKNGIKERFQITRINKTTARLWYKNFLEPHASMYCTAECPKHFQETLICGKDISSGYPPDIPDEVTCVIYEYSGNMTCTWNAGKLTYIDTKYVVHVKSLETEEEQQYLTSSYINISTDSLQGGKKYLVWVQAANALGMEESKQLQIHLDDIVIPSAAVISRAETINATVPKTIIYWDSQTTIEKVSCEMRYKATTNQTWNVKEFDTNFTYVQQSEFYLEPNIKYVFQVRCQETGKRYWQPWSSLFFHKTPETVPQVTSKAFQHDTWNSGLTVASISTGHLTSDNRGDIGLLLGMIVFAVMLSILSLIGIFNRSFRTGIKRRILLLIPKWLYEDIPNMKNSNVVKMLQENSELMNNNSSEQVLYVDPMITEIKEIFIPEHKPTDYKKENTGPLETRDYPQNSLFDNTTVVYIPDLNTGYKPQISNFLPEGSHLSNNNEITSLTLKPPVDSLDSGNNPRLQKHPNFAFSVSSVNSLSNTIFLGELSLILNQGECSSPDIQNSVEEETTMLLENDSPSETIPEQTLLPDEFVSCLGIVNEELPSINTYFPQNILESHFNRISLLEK
Nature of the series: IL23R Reporter Assay. The format is cell-based. Particulars: HEK293 cells containing IL-23R, IL-12RP1 and STAT-inducible firefly luciferase reporter; 10 ng/mL IL-23 (EC90); 5 h at 37° C.; read-out: IL23R Reporter Assay. A general note: In a reporter assay the amount or activity of a reporter protein is the signal.

A short description of series [1]: Exposed Polar Surface Area (EPSA). The note with it: SFC on Chirex 3014 column; sample 1 mM DMSO stock; read-out: EPSA. Format: physicochemical. The method in brief:
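Polarity descriptor in Å² derived from retention time using 8 calibration standards re-run every 20 compounds. Duplicate injections of 1 mM DMSO stock; linear 5–60% modifier gradient (20 mM ammonium formate in MeOH) with CO2 at 4 mL/min, 35 °C, on a Chirex 3014 column.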

Consider `CC(=O)NCCCC[C@@H]1NC(=O)[C@H](Cc2c[nH]c3ccccc23)NC(=O)[C@H]([C@@H](C)O)NC(=O)[C@H](CC(N)=O)NC(=O)[C@@H](NC(=O)[C@@H](CCCNC(=N)N)NC(C)=O)CCSC[C@@](C)(C(=O)N[C@@H](Cc2ccc(OCCCCC[N+](C)(C)C)cc2)C(=O)N[C@@H](Cc2ccc3ccccc3c2)C(=O)NC2(C(=O)N[C@@H](CCCCNC(C)=O)C(=O)N[C@@H](CC(N)=O)C(=O)N[C@@H](Cc3cccnc3)C(=O)N(C)CC(N)=O)CCOCC2)NC1=O` [compound 568, MeCO-r-Abu(1)-N-T-W-K(Ac)-aMeC(1)-TMAPF-2Nal-THP-K(Ac)-N-3Pya-Sar-CONH2] (Ac-[dR][Abu(4-yl)]NTWK(Ac)[αMeC]Y(X3)[2Nal][Thp]K(Ac)N[3Pal][Sar]-NH2; thioether 2-7), for which the IC50 on IL-23R was 390 nM. The EPSA in series [1] was determined as 174 A^2.
Taken in the same sequence, the figures for `CCCCCCCCCCCC(=O)N[C@@H](CCC(=O)NCCOCCOCC(=O)NCCOCCOCC(=O)NCCCC[C@@H](NC(C)=O)C(=O)N[C@@H]1C(=O)N[C@@H](CC(N)=O)C(=O)N[C@@H]([C@@H](C)O)C(=O)N[C@H](Cc2c[nH]c3c(C)cccc23)C(=O)N[C@@H](CCCCNC(C)=O)C(=O)N[C@H](C(=O)N[C@@H](Cc2ccc(OCCN)cc2)C(=O)N[C@@H](Cc2ccc3ccccc3c2)C(=O)NC2(C(=O)N[C@@H](CCCCNC(C)=O)C(=O)N[C@@H](CC(N)=O)C(=O)N[C@@H](Cc3cccnc3)C(=O)N(C)CC(N)=O)CCOCC2)C(C)(C)SSC1(C)C)C(=O)N[C@H](CC(=O)O)C[N+](C)(C)C` [compound 572, MeCO-canEG2PEG2gE(c)C12-Pen(3)-N-T-7MeW-K(Ac)-Pen(3)-AEF-2Nal-THP-K(Ac)-N-3Pya-Sar-CONH2] (Ac-[dK]([AEEA-AEEA-X48])[Pen]NT[dTrp(7-Me)]K(Ac)[Pen][AEF][2Nal][Thp]K(Ac)N[3Pal][Sar]-NH2; disulfide 2-7) were 5.8 nM and 166 A^2.
In the case of `Cc1cccc2c(C[C@@H]3NC(=O)[C@H]([C@@H](C)O)NC(=O)[C@H](CC(=O)N(C)C)NC(=O)[C@@H](NC(=O)CCOCCOCCOCCOCC[N+](C)(C)C)C(C)(C)SSC(C)(C)[C@@H](C(=O)N[C@@H](Cc4ccc(OCCN)cc4)C(=O)N[C@@H](Cc4ccc5ccccc5c4)C(=O)NC4(C(=O)N[C@@H](CCN(C)C(=O)COCCOCC[N+](C)(C)C)C(=O)N[C@@H](CC(N)=O)C(=O)N[C@@H](Cc5cccnc5)C(=O)N(C)CC(=O)N(C)C)CCOCC4)NC(=O)[C@H](CCN(C)C(=O)COCCOCC[N+](C)(C)C)NC3=O)c[nH]c12` [compound 172, cPEG5aCO-Pen(3)-N(N(Me)2)-T-7MeW-Dab(NMecPEG2a)-Pen(3)-AEF-2Nal-THP-Dab(NMecPEG2a)-N-3Pya-Sar-CON(Me)2] ({Me3N+CH2CH2(OCH2CH2)4CO}-[Pen]D(NMe2)T[Trp(7-Me)][X1](X5)[Pen][AEF][2Nal][Thp][X1](X5)N[3Pal][Sar]-NMe2; disulfide 1-6), on IL-23R, the IC50 turned out to be 6.5 nM. Also, the EPSA in series [1] amounted to 145 A^2.
The matching figures for `CC(=O)NCCCC[C@@H]1NC(=O)[C@H](Cc2c[nH]c3c(-c4cccc(NC(C)=O)c4)cccc23)NC(=O)[C@H]([C@@H](C)O)NC(=O)[C@H](CC(N)=O)NC(=O)[C@@H](NC(C)=O)C(C)(C)SSC(C)(C)[C@@H](C(=O)N[C@@H](Cc2ccc(OCCCCC[N+](C)(C)C)cc2)C(=O)N[C@@H](Cc2ccc3ccccc3c2)C(=O)NC2(C(=O)N[C@@H](CCCCNC(C)=O)C(=O)N[C@@H](CC(N)=O)C(=O)N[C@@H](Cc3cncc(C)c3)C(=O)N(C)CC(N)=O)CCOCC2)NC1=O` [compound 503, MeCO-Pen(3)-N-T-7(3NAcPh)W-K(Ac)-Pen(3)-TMAPF-2Nal-THP-K(Ac)-N-5MePyridinAla-Sar-CONH2]: 8.4 nM and 169 A^2.
With `CCCCCCCCCCCC(=O)N[C@@H](CCC(=O)NCCOCCOCC(=O)NCCOCCOCC(=O)NCCCC[C@@H]1NC(=O)[C@H](Cc2c[nH]c3c(C)cccc23)NC(=O)[C@H]([C@@H](C)O)NC(=O)[C@H](CC(=O)N(C)C)NC(=O)[C@@H](NC(=O)CCOCCOCC[N+](C)(C)C)C(C)(C)SSC(C)(C)[C@@H](C(=O)N[C@@H](Cc2ccc(OCCCCC[N+](C)(C)C)cc2)C(=O)N[C@@H](Cc2ccc3ccccc3c2)C(=O)NC2(C(=O)N[C@@H](CCCCN(C)C(C)=O)C(=O)N[C@@H](CC(N)=O)C(=O)N[C@@H](Cc3cccnc3)C(=O)N(C)[C@@H](CCCCNC(=O)COCCOCCNC(=O)COCCOCCNC(=O)CC[C@H](NC(=O)CCCCCCCCCCC)C(=O)O)C(N)=O)CCOCC2)NC1=O)C(=O)O` [compound 352, cPEG3aCO-Pen(3)-N(N(Me)2)-T-7MeW-K(PEG2PEG2gEC12)-Pen(3)-TMAPF-2Nal-THP-K(NMeac)-N-3Pya-NMeK(PEG2PEG2gEC12)-CONH2] ({Me3N+(CH2)2O(CH2)2O(CH2)2CO}-[Pen]D(NMe2)T[Trp(7-Me)]K([AEEA-AEEA-γGlu-Lauroyl])[Pen]Y(X3)[2Nal][Thp][Lys(Me)](Ac)N[3Pal][NMeK]([AEEA-AEEA-γGlu-Lauroyl])-NH2; disulfide 1-6), on IL-23R, the IC50 stood at 190 nM. Besides, the EPSA in series [1] came out at 179 A^2.
The matching figures for `CC(=O)N(C)CC[C@H](NC(=O)C1(NC(=O)[C@H](Cc2ccc3ccccc3c2)NC(=O)[C@H](Cc2ccc(OCCN)cc2)NC(=O)[C@H]2NC(=O)[C@H](CCC(=O)N(C)C)NC(=O)[C@H](Cc3c[nH]c4c(C)cccc34)NC(=O)[C@H]([C@@H](C)O)NC(=O)[C@H](CC(N)=O)NC(=O)[C@@H](NC(=O)CCOCCOCC[N+](C)(C)C)C(C)(C)SSC2(C)C)CCOCC1)C(=O)N[C@@H](CC(N)=O)C(=O)N[C@@H](Cc1cccnc1)C(=O)N(C)CC(N)=O` [compound 178, cPEG3aCO-Pen(3)-N-T-7MeW-Q(N(Me)2)-Pen(3)-AEF-2Nal-THP-Dab(NMeAc)-N-3Pya-Sar-CONH2] ({Me3N+(CH2)2O(CH2)2O(CH2)2CO}-[Pen]NT[Trp(7-Me)]E(NMe2)[Pen][AEF][2Nal][Thp][Dab(NMeAc)]N[3Pal][Sar]-NH2; disulfide 1-6): 2 nM and 154 A^2.
Regarding `COCCOCCN(C)C(=O)CN(C)C(=O)[C@H](Cc1cccnc1)NC(=O)[C@H](CC(N)=O)NC(=O)[C@H](CCC(=O)O)NC(=O)C1(NC(=O)[C@H](Cc2ccc3ccccc3c2)NC(=O)[C@H](Cc2ccc(OCCN)cc2)NC(=O)[C@H]2NC(=O)[C@H](CCCCNC(C)=O)NC(=O)[C@H](Cc3c[nH]c4c(C)cccc34)NC(=O)[C@H]([C@@H](C)O)NC(=O)[C@H](CC(N)=O)NC(=O)[C@@H](NC(C)=O)C(C)(C)SSC2(C)C)CCOCC1` [compound 113] (Ac-[Pen]NT[Trp(7-Me)]K(Ac)[Pen][AEF][2Nal][Thp]EN[3Pal][Sar]-X25; disulfide 1-6 (inferred)), the IC50 at IL-23R was found to be 3.8 nM. Also, the EPSA in series [1] was 169 A^2.
The matching figures for `CCCCCCCC[N+](C)(C)CCc1cn(CCOc2ccc(C[C@H](NC(=O)[C@H]3NC(=O)[C@H](CCCCNC(C)=O)NC(=O)[C@H](Cc4c[nH]c5c(C)cccc45)NC(=O)[C@H]([C@@H](C)O)NC(=O)[C@H](CC(N)=O)NC(=O)[C@@H](NC(C)=O)C(C)(C)SSC3(C)C)C(=O)N[C@@H](Cc3ccc4ccccc4c3)C(=O)NC3(C(=O)N[C@@H](CCCCNC(C)=O)C(=O)N[C@@H](CC(N)=O)C(=O)N[C@@H](Cc4cccnc4)C(=O)N(C)CC(N)=O)CCOCC3)cc2)nn1` [compound 250] (Ac-[Pen]NT[Trp(7-Me)]K(Ac)[Pen]Y(X60)[2Nal][Thp]K(Ac)N[3Pal][Sar]-NH2; disulfide 1-6 (inferred)): 6.9 nM and 146 A^2.
